Reference: patent US6469013B2, “Therapeutic compounds” (Parker Hughes Institute, priority 1998, dated 2002)

Experiments:
[1] = biological target: T1, recombinant murine JAK3 (Mus musculus, UniProt Q62137); assay: Recombinant JAK3 immune complex kinase assay (baculovirus, Sf21); type: biochemical
T1 sequence (Q62137 1-1100): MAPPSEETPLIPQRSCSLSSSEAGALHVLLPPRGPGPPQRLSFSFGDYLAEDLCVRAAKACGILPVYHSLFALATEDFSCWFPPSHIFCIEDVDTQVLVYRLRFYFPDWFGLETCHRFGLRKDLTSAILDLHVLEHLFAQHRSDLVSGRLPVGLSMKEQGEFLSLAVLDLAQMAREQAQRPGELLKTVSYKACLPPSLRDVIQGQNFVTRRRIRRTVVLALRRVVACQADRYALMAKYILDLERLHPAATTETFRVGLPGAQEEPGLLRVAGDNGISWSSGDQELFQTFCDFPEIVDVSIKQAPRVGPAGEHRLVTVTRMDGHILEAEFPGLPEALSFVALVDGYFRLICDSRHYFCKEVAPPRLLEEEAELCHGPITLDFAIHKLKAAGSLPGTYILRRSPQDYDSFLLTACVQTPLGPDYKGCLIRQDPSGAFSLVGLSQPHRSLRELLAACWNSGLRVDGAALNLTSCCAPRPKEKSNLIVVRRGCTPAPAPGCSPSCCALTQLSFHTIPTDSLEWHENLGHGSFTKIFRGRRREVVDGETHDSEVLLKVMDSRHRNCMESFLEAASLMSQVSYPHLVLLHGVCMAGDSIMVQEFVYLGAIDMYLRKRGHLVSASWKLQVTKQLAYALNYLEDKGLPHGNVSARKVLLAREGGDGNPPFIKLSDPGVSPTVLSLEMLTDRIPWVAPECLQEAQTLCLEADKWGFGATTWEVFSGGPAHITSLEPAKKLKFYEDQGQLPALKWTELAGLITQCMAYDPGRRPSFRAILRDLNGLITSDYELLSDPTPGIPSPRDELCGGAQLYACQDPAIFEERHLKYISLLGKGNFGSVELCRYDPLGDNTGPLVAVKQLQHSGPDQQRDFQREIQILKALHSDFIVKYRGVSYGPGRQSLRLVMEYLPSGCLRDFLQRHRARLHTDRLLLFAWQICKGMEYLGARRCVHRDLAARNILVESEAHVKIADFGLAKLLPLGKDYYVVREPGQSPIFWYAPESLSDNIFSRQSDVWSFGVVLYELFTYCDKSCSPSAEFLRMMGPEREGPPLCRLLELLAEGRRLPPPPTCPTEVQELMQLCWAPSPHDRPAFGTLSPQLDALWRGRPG
Protocol: Sf21 (IPLB-SF21-AE) cells (Vassilev, A., et al., J. Biol. Chem. 274: 1646-1656, 1999) derived from the ovarian tissue of the fall armyworm Spodotera frugiperda, were obtained from Invitrogen (Carlsbad, Calif.) and maintained at 26-28° C. in Grace's insect cell medium supplemented with 10% FBS and 1.0% antibiotic/antimycotic (GIBCO-BRL). Stock cells were maintained in suspension at 0.2-1.6×10^6/ml in 600 ml total culture volume in 1 L Bellco spinner flasks at 60-90 rpm. Cell viability was maintained at 95-100% as determined by trypan blue dye exclusion. Sf21 cells were infected with a baculovirus expression vector for BTK, SYK, JAK1, JAK2, or JAK3. Cells were harvested, lysed (10 MM Tris pH7.6, 100 mM NaCl, 1% Nonidet P40, 10% glycerol, 50 mM NaF, 100 μM Na3VO4, 50 μg/ml phenylmethylsulfonyl fluoride, 10 μg/ml aprotonin, 10 μg/ml leupeptin), the kinases were immunoprecipitated from the lysates, and their enzymatic activity assayed, as reported (Vassilev, A., et al., J. Biol. Chem. 274: 1646-1656, 1999; Uckun, F. M., et al., Science. 22: 1096-1100, 1996; Goodman, P. A., et al., J. Biol. Chem. 273: 17742-48, 1998; Mahajan, S., et al., Mol. Cell. Biol. 15: 5304-11, 1995; and Uckun, F. M., et al., Science. 267: 886-91, 1995). The immunoprecipitates were subjected to Western blot analysis as previously described (Vassilev, A., et al., J. Biol. Chem. 274: 1646-1656, 1999; and Uckun, F. M., et al., Science. 22: 1096-1100, 1996).
In JAK3 immune complex kinase assays (17, 22), KL-2 EBV-transformed human lymphoblastoid B cells (native JAK3 kinase assays) or insect ovary cells (recombinant JAK3 kinase assays) were lysed with NP-40 lysis buffer (50 mM Tris, pH 8, 150 mM NaCl, 5 mM EDTA, 1% NP-40, 100 μM sodium orthovanadate, 100 μM sodium molybdate, 8 μg/ml aprotinin, 5 μg/ml leupeptin, and 500 μM PMSF) and centrifuged 10 min at 13000× g to remove insoluble material. Samples were immunoprecipitated with antisera prepared against JAK3. The antisera were diluted and immune complexes collected by incubation with 15 μl protein A Sepharose. After 4 washes with NP-40 lysis buffer, the protein A Sepharose beads were washed once in kinase buffer (20 mM MOPS, pH7, 10 mM MgCl2) and resuspended in the same buffer. Reactions were initiated by the addition of 25 μCi [γ^32P] ATP (5000 Ci/mMole) and unlabeled ATP to a final concentration of 5 μM. Reactions were terminated by boiling for 4 min in SDS sample buffer. Samples were run on 9.5% SDS polyacrylamide gels and labeled proteins were detected by autoradiography. […] For each drug concentration, a kinase activity index (KA) was determined by comparing the kinase activity in phosphorimager units (PIU) to that of the baseline sample. […]

[2] = system: C57BL/6 recipients; assay: Allogeneic islet transplantation (BALB/c islets); type: in vivo, mouse
Protocol: Islets were hand-picked 3-4 times under the dissecting scope before islets were free of exocrine tissue, vessels, lymph nodes and ducts and ready for transplantation.
Four hundred islets were placed in Hamilton syringe and transplanted under the left kidney capsule of each diabetic recipient mouse. Recipients were rendered diabetic with a single i.p. dose of streptozotocin (200 mg/kg; Sigma, St. Louis, Mo.) 1 wk before transplantation. Blood glucose level was measured by One Touch Profile glucose monitor system (Lifescan, Milpitas, Calif.). […] Allograft function was monitored by serial blood glucose measurements. […] All injections were given i.p.
Kidneys bearing grafts were removed, fixed in 10% formalin and embedded in paraffin. Serial sections of graft area were cut and stained with hematoxylin and eosin. For insulin staining, sections were stained by immunoperoxidase method using 1:100 dilution of polyclonal guinea pig anti-insulin antibody (Gpx Insulin, Dako, Carpinteria, Calif.) and 1:100 dilution of secondary antibody conjugated to horse radish peroxidase (Guinea Pig Immunoglobulins HRP, Dako, Carpinteria, Calif.). Sections were briefly counterstained with hematoxylin and mounted for light microscopic examination.

In the case of `COc1cc2ncnc(Nc3ccc(O)cc3)c2cc1OC` [WHI-P131, 4-(4′-hydroxyl-phenyl)-amino-6,7-dimethoxyquinazoline], the IC50 ([1]; recombinant murine JAK3) is reported as 78 µM, the IC50 ([1]; recombinant murine JAK3, converted from μg/ml) is reported as about 78 µM and the “islet allograft mean survival time (MST)” value ([2]; 50 mg/kg daily i.p., controls 14.1±0.9) is reported as 24.7±3.4 days. For the same molecule, the “islet allograft mean survival time (MST)” value ([2]; 75 mg/kg daily i.p.) was 25.3±3.8 days.
